The source of these data is patent US20260276634A1, “METHOD FOR DETERMINING INTESTINAL PERMEABILITY” (BIOMEDAL, SL, priority 2023, published 2026).

For the data set the following is noted: human, in vivo.

Procedure: Specifically, subjects (n=15) received 8 g of gluten after at least 8 hours of fasting, following a gluten-free diet for at least 36 hours in individuals without diagnosed celiac disease. The gluten consisted of gluten powder with flavorings (sweeteners and food colorings) contained in single-use heat-sealed sachets. At the same time, volunteers took 1 g of mannitol and 10 g of lactulose. Subsequently, the various urines were collected in separate containers, to be able to perform individualized measurements of the concentration in each void, as well as the total volume of the urines. The amount of gluten peptides present in urine excreted for 15 hours following gluten intake was determined using the iVYCHECK urine product and a calibrated lateral flow strip reader iVYCHECK Reader (Biomedal, Spain). […]
In this example conducted with 15 volunteers without symptoms of diagnosed digestive disease, basal urine is analyzed. […] The concentrations of GIP in the excreted urines were measured, both by ELISA and LFIA between 0-6 h after intake and between 2-15 h after intake individually. The GIP concentration of each urine of each volunteer (FIG. 4) and lactulose (FIG. 5) were measured, and subsequently, the % excreted relative to the ingested GIP and the lactulose/mannitol ratio (FIG. 6) were calculated. The correlation between lactulose: mannitol and GIP was determined. […]

gluten: the “share of detectable gluten excreted in the first 9 to 15 hours” value is recorded as above 80%.
`OC[C@H]1O[C@@H](O[C@@H]2[C@@H](CO)OC(O)(CO)[C@H]2O)[C@H](O)[C@@H](O)[C@H]1O` (mixture of isomers) [lactulose]: the “time over which lactulose excretion occurs” value is on record as above 15 h.
